Source: patent publication US20120220528A1, “SYSTEMS AND METHODS FOR THERAPY OF KIDNEY DISEASE AND/OR HEART FAILURE USING CHIMERIC NATRIURETIC PEPTIDES” (MEDTRONIC, INC., priority 2011, published 2012)
“Also recorded” adds a separate entry of the source. Bridges are numbered along the chain shown (N, C = ends). Where no end group is shown, it is not given here.

Tests used:
healthy canines [1] = assay: Healthy canines: diuresis and natriuresis after subcutaneous bolus; assay type: in vivo, canine; settings: SQ bolus, BNP 25 μg/kg
healthy canines [2] = assay: Healthy canines: diuresis and natriuresis with IV infusion; assay type: in vivo, canine; settings: one-hour IV infusion; CD-NP 100 ng/kg·min, BNP 30 ng/kg·min
[3] = tested on: Human renal medullary epithelial cells; assay: In vitro cell-based assay of cGMP production; settings: 9000, 3000, 300, 30, 10 and 0 nM, 15 minutes, ELISA

Row | Substance | sodium excretion (natriuresis) following subcutaneous bolus (healthy canines [1]; CD-NP 27 μg/kg) | urine flow following subcutaneous bolus vs baseline (healthy canines [1]; CD-NP 27 μg/kg (equimolar)) | sodium excretion (healthy canines [2]) | urine flow from baseline (healthy canines [2]) | stimulation of cGMP production [3]
1 | BNP: commercial preparation of Natrecor; recombinant form of the 32 amino acid human B-type natriuretic peptide, comparative natriuretic peptide | increase | increase; also recorded: statistically significant | increasing trend | increasing trend | –
2 | ANP: human atrial natriuretic peptide (Phoenix Pharmaceuticals), control; ligand to the NPR-A receptor (SLRRSSCFGGRMDRIGAQSGLGCNSFRY; disulfide 7-23 (inferred); ends not checked; UniProt P01160 124-151, looked up) | – | – | – | – | significantly less
